Data reported in US20150374755A1, “Treated Cells and Therapeutic Uses” (NHS BLOOD & TRANSPLANT, priority 2013, published 2015).

Tested on: CD4 and CD8 T lymphocytes
Experiment: Suppression of stimulated T cell proliferation (CFSE) by drug pre-incubated MSC
Type: cell-based, human
Conditions: MSC pre-incubated with 50 ng/ml; FIG. 6
Experimental: MSC derived from (FIG. 1A,E) bone marrow (BM) or (FIG. 1B-D) two independent umbilical cord (UC) preparations (WJ6060:FIG. 1B-C; WJ24-0: FIG. 1D) were incubated with Rapamycin overnight at concentrations from 0.4 to 50 ng/ml, or without drug (control (Ctl)). The MSC were washed, trypsinised, and plated in fresh medium without Rapamycin at 1, 5, and 25 k per well in 96 well plates. After 2-4 hours, human adult peripheral blood mononuclear cells (MNC) labelled with carboxyfluorescein succinimidyl ester (CFSE) were added, and the T lymphocytes therein were stimulated to proliferate with Phytohemagglutinin (PHA) (FIG. 1A-D) or anti-CD3, CD28 activation beads (FIG. 1E). Proliferation levels were determined after 3 days as described in the Methods section. […]
After 3-4 (PHA or bead stimulation) or 5-6 days (allostimulation) the cultures were analysed by flow cytofluorometry after staining for CD3 and CD4, and the CFSE dye-dilution profiles of CD3+CD4+ (CD4) and CD3+CD4- (CD8) lymphocytes were used to calculate proliferation indices (Lyons (2000)). To normalise the level of proliferation between experiments, the proliferation indices were calculated as: (proliferation index for condition X−proliferation index for unstimulated cells)/(proliferation index for PHA or bead stimulated control cells−proliferation index for unstimulated cells). […]

In the case of CCC(=O)N1CCN(c2ccc(-n3c(=O)ccc4cnc5ccc(-c6cnc7ccccc7c6)cc5c43)cc2C(F)(F)F)CC1 [Torin 1], the “super-suppression by pre-incubated MSC” value was “no significant super-suppression”.
